Data taken from PubChem BioAssay (NCI).
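Grown in 96-well plates, cells were treated for 48 hours with each compound at five concentrations. Insufficient inhibition: endpoint recorded as highest concentration tested. TGI denotes the concentration required for complete inhibition of growth.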

Tests used:
Assay in all cases: DTP human tumour cell line panel, 48 h
[1] = tested on: SW-620 colon
[2] = tested on: M19-MEL melanoma
[3] = tested on: SNB-19 CNS
[4] = tested on: SF-295 CNS
[5] = tested on: HL-60(TB) leukemia
[6] = tested on: CAKI-1 renal
[7] = tested on: UACC-62 melanoma
[8] = tested on: OVCAR-8 ovarian
[9] = tested on: RXF-631 renal
[10] = tested on: EKVX NSCLC
[11] = tested on: HOP-18 NSCLC
[12] = tested on: CCRF-CEM leukemia
[13] = tested on: SNB-75 CNS
[14] = tested on: RXF 393 renal
[15] = tested on: SK-OV-3 ovarian
[16] = tested on: ACHN renal
[17] = tested on: NCI-H460 lung
[18] = tested on: XF 498 CNS
[19] = tested on: UACC-257 melanoma
[20] = tested on: NCI-H23 lung
[21] = tested on: HCT-15 colon
[22] = tested on: DLD-1 colon
[23] = tested on: UO-31 renal
[24] = tested on: TK-10 renal
[25] = tested on: OVCAR-3 ovarian
[26] = tested on: A498 renal
[27] = tested on: KM20L2 colon
[28] = tested on: SR leukemia
[29] = tested on: SF-268 CNS
[30] = tested on: NCI-H522 lung
[31] = tested on: MOLT-4 leukemia
[32] = tested on: K-562 leukemia
[33] = tested on: U251 CNS
[34] = tested on: SF-539 CNS
[35] = tested on: SK-MEL-2 melanoma
[36] = tested on: OVCAR-5 ovarian
[37] = tested on: IGROV1 ovarian
[38] = tested on: SNB-78 CNS
[39] = tested on: KM12 colon
[40] = tested on: M14 melanoma
[41] = tested on: DMS 114 small cell lung
[42] = tested on: SK-MEL-5 melanoma
[43] = tested on: NCI-H226 lung
[44] = tested on: HCC-2998 colon
[45] = tested on: HCT-116 colon
[46] = tested on: LXFL 529 NSCLC
[47] = tested on: HT29 colon
[48] = tested on: RPMI-8226 leukemia
[49] = tested on: 786-0 renal
[50] = tested on: HOP-62 NSCLC
[51] = tested on: SK-MEL-28 melanoma
[52] = tested on: A549 NSCLC
[53] = tested on: LOX IMVI melanoma
[54] = tested on: HOP-92 NSCLC
[55] = tested on: SN12C renal
[56] = tested on: DMS 273 small cell lung
[57] = tested on: OVCAR-4 ovarian
[58] = tested on: MALME-3M melanoma
[59] = tested on: COLO 205 colon

For Cc1ccccc1NC(=O)/C(=N/NC(=O)CC#N)C1C(=O)N(c2ccccc2)N=C1N (centres undefined), the TGI [1] was over 100 µM, the TGI [2] was over 100 µM and the TGI [3] was over 100 µM. The TGI [4] was over 100 µM, the TGI [5] was over 100 µM and the TGI [6] was over 100 µM. For the same molecule, the TGI [7] was over 100 µM, the TGI [8] was over 100 µM and the TGI [9] was over 100 µM. For the same molecule, the TGI [10] was over 100 µM, the TGI [11] was over 100 µM and the TGI [12] was 88.9 µM. It also gave a TGI [13] of over 100 µM, a TGI [14] of over 100 µM and a TGI [15] of over 100 µM. It also gave a TGI [16] of over 100 µM, a TGI [17] of over 100 µM and a TGI [18] of over 100 µM. For the same molecule, the TGI [19] was over 100 µM, the TGI [20] was over 100 µM and the TGI [21] was over 100 µM. For the same molecule, the TGI [22] was over 100 µM, the TGI [23] was over 100 µM and the TGI [24] was over 100 µM. It also gave a TGI [25] of over 100 µM, a TGI [26] of over 100 µM and a TGI [27] of over 100 µM. For the same molecule, the TGI [28] was over 100 µM, the TGI [29] was over 100 µM and the TGI [30] was over 100 µM. The TGI [31] was over 100 µM, the TGI [32] was over 100 µM and the TGI [33] was over 100 µM. The TGI [34] was over 100 µM, the TGI [35] was over 100 µM and the TGI [36] was over 100 µM. The TGI [37] was over 100 µM, the TGI [38] was over 100 µM and the TGI [39] was over 100 µM. It also gave a TGI [40] of over 100 µM, a TGI [41] of over 100 µM and a TGI [42] of over 100 µM. For the same molecule, the TGI [43] was over 100 µM, the TGI [44] was over 100 µM and the TGI [45] was over 100 µM. The TGI [46] was over 100 µM, the TGI [47] was over 100 µM and the TGI [48] was over 100 µM. For the same molecule, the TGI [49] was over 100 µM, the TGI [50] was over 100 µM and the TGI [51] was over 100 µM. For the same molecule, the TGI [52] was over 100 µM, the TGI [53] was over 100 µM and the TGI [54] was over 100 µM. It also gave a TGI [55] of over 100 µM, a TGI [56] of over 100 µM and a TGI [57] of over 100 µM. For the same molecule, the TGI [58] was over 100 µM and the TGI [59] was over 100 µM.
